Assay results published in the SangsterLogP compilation.

Structure (SMILES)	logP
COC(C(=O)c1ccccc1)c1ccccc1 (stereo unspecified)	1.38
C=C(C)C(=O)OCC(O)COc1cccc2ccccc12 (stereo unspecified)	3.31
Cc1ccc(N(CCO)CCO)cc1	1.09
C=C(C)C(=O)OCC(O)COc1ccccc1 (stereo unspecified)	2.18
C=Cc1ccc(C(=O)O)cc1	2.18
O=C(OOC(=O)c1ccccc1)c1ccccc1	3.46
C=C(C)C(=O)OCC	1.5
C=C(C)C(=O)OCC(C)(O)COc1cccc2ccccc12 (stereo unspecified)	3.77
C=C(C)C(=O)OCCOCCOCCOC(=O)C(=C)C	1.88
C=C(C)C(=O)OCC(CC)CCCC (stereo unspecified)	4.67
C=C(C)C(=O)OC	0.79
